In patent publication US6759397B2, “Ginsenoside chemotherapy” (The University of British Columbia, priority 2000, dated 2004):
Where two headings read alike, the source gives them in different places.

Key:
MDA435/LCC6W cells = assay: Viable cell count, Rh2 with paclitaxel, wild-type breast cancer cells; assay type: cell-based; conditions: Homo sapiens, L6W (wild-type MDA435/LCC6W)
Protocol: (§1) Human breast cancer cells MDA435/LCC6 cells, both wild-type (MDA435/LCC6W) or a drug resistant strain expressing a transfected multidrug resistant gene encoding P-glycoprotein (MDA435/LCC6M), were incubated with 20 μg/ml or 30 μg/ml of Rh2 in the presence of paclitaxel at various concentrations. Viable cells were counted 24 hrs after treatment.

MDA435/LCC6M cells [1] = assay: Viable cell count, Rh2 with paclitaxel, multidrug resistant breast cancer cells expressing P-glycoprotein; conditions: for IC50: Homo sapiens, MDA435, 24 h
Protocol: as §1

[2] = system: human prostate cancer cells LNCaP; assay: Cytotoxicity of Rh2 with mitoxantrone or paclitaxel, cellular viability of LNCaP cells; assay type: cell-based
From the text: In one aspect, the invention provides therapeutically synergistic effects of Rh2 with chemotherapeutic compounds.

[3] = system: Mesothelioma cells (MS-1 cells); assay: Viability of non-Pgp multidrug resistant mesothelioma cells, Rh2 with cisplatin or paclitaxel; assay type: cell-based
MDA435/LCC6M cells [4] = system: MDA435/LCC6M cells
Protocol: as §1

IC50 (MDA435/LCC6W cells; no Rh2, viable cells counted 24 hrs after treatment, read-out: Calculated IC50 of paclitaxel, Paclitaxel alone) [nM]	IC50 (MDA435/LCC6W cells; with 20 μg/ml Rh2, 24 hrs, read-out: Calculated IC50 of paclitaxel, Pac. + 20 μg/ml Rh2) [nM]	IC50 (MDA435/LCC6W cells; with 30 μg/ml Rh2, 24 hrs, read-out: Calculated IC50 of paclitaxel, Pac. + 30 μg/ml Rh2) [nM]	IC50 (MDA435/LCC6M cells [1]; read-out: Calculated IC50 of paclitaxel, Pac. + 20 μg/ml Rh2) [nM]	IC50 (MDA435/LCC6M cells [1]; read-out: Calculated IC50 of paclitaxel, Pac. + 30 μg/ml Rh2) [nM]	IC50 (MDA435/LCC6M cells [1]; read-out: Calculated IC50 of paclitaxel, Paclitaxel alone) [nM]	Structure (SMILES)	Paclitaxel concentration at which cytotoxicity was shown in the presence of Rh2 (MDA435/LCC6M cells [1]; MDA435/LCC6M, with Rh2, as low as) [nM]	Cytotoxicity of Rh2 alone ([2]; 20 μg/ml Rh2, LNCaP)	Effect of Rh2 on cytotoxicity of paclitaxel ([2]; 20 μg/ml Rh2, particularly 0.1 nM and 1 nM paclitaxel, LNCaP)	Effect of Rh2 on cytotoxicity of mitoxantrone ([2]; 20 μg/ml Rh2, wide range of mitoxantrone concentrations, LNCaP)	Synergistic effect of Rh2 with cisplatin ([3]; 20 μg/ml Rh2, various cisplatin concentrations)	Synergistic effect of Rh2 with paclitaxel ([3]; 20 μg/ml Rh2, various paclitaxel concentrations)	Effect of Rh2 on cytotoxicity of paclitaxel (MDA435/LCC6M cells [4])	Effect of Rh2 alone on the cells (MDA435/LCC6M cells [1]; MDA435/LCC6M, 20 or 30 μg/ml Rh2, 24 hrs)
248	75	25	0.15	< 0.03	631	CC(=O)O[C@H]1C(=O)[C@@]2(C)[C@H]([C@H](OC(=O)c3ccccc3)[C@]3(O)C[C@H](OC(=O)[C@H](O)[C@@H](NC(=O)c4ccccc4)c4ccccc4)C(C)=C1C3(C)C)[C@]1(OC(C)=O)CO[C@@H]1C[C@@H]2O [Paclitaxel]	0.1	–	–	–	–	–	–	–
–	–	–	–	–	–	CC(C)=CCC[C@](C)(O)[C@H]1CC[C@]2(C)[C@@H]1[C@H](O)C[C@@H]1[C@@]3(C)CC[C@H](O[C@@H]4O[C@H](CO)[C@@H](O)[C@H](O)[C@H]4O)C(C)(C)[C@@H]3CC[C@]12C [Rh2]	–	little or no significant cytotoxicity alone	added significantly to the cytotoxicity of paclitaxel	added significantly to the cytotoxicity of mitoxatron	significant	significant	unexpectedly and significantly enhanced by Rh2	little or no effect on the cells
